In PMC6014988, “Precision therapeutic targeting of human cancer cell motility” (Nature Communications, 2018):
Read-outs that look alike come from different tables or passages of the source.

Experiments:
[1] = Three-day MTT cell growth inhibition assay, PC3; assay type: cell-based, human; conditions: human, PC3 cells
PC3 = test: Three-day MTT cell growth inhibition assay, PC3; assay type: cell-based, human; conditions: Homo sapiens, PC-3, 72 h, 3 days
[2] = system: human cord blood CD34+ stem cells; test: Hematopoietic stem cell colony formation assay; assay type: cell-based
Procedure: Fourteen-day colony formation assays were conducted as described by us[39], using human cord blood CD34+ stem cells (AllCells Inc.), using MethoCultExpress™ colony growth media (StemCell Technologies Inc.), performed in replicates of N = 2.

[3] = Plasma KBU2046 concentration after dosing in chow; assay type: in vivo; conditions: Balb/c athymic, mouse, oral
Procedure: For determination of pharmacokinetic (PK) parameters, KBU2046 was administered by either intravenous injection or oral gavage to groups of N = 3 CD1(ICR) mice at 0 (i.e., vehicle only), 25, or 100 mg/kg. Blood was collected into EDTA by terminal cardiac puncture before drug administration (i.e., baseline) and at 5, 10, 15, 30, 45, 60, 90, 120, 180, 240, 360, 480, 960, 1440 min after administration. In separate experiments, as described above, Balb/c athymic mice were dosed with KBU2046 incorporated into chow for 35 days, after which blood was collected by terminal cardiac puncture. Resultant plasma (~250 μl/mouse) was stored at −80 °C.
Plasma KBU2046 concentrations were measured in duplicate by liquid chromatography-tandem mass spectrometry after sample preparation by solid-phase extraction. […] The mass-to-charge ratios of the precursor-to-product ion reactions monitored were 243.5 → 125.1 for KBU2046 and 257.0 → 165.0 for the internal standard. […]

MKK4 = MKK4 (Homo sapiens, UniProt P45985); test: MKK4 in vitro kinase assay; assay type: biochemical
MKK4, sequence (P45985 whole entry): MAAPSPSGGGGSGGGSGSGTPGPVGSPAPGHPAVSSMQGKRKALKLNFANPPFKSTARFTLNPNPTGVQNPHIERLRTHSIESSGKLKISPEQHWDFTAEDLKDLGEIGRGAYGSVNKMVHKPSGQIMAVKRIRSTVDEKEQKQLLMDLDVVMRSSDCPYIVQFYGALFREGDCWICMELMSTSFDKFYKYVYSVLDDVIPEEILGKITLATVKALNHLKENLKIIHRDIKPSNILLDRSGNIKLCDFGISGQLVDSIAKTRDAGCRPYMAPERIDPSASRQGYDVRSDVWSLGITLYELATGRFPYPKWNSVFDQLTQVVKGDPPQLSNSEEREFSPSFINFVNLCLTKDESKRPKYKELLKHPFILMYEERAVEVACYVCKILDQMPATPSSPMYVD
Procedure: MEK4/MKK4/MAP2K4 in vitro kinase assay was performed as described by us[45].
Supplementary Figure 9. […] (a) Depiction of […]
established MKK4 pathway regulating human PCa cell metastasis. […]
to MKK4, as measured by fluorescence-based thermal shift assay. Values are the mean±SD (of N=2 replicates) increase in melting temperature (ΔTm) of purified recombinant MKK4 induced by the indicated concentrations of KBU2046 or genistein. […]
in an in vitro kinase assay. The indicated concentrations of KBU2046 were added to recombinant activated MKK4, and its ability to phosphorylate kinase dead p38α MAPK (K53A) was measured by Western blot for total (p38 MAPK) and phosphorylated (pp38 MAPK) forms of […]
HSP27 in cells. PC3-M cells were pre-treated for 24 hours with 50 µM KBU2046 or genistein, as indicated, then with TGFβ, and Western blot performed. All findings are from a single experiment, with similar findings in identical separate experiments, repeated at least once. […]

[4] = target: T1, CDC37/HSP90β heterocomplex (Homo sapiens, UniProt P08238+Q16543); test: DARTS assay with CDC37 and HSP90β combined; assay type: binding
T1 construct: made in house; host or cells: E. coli (Rosetta BL-21 for HSP90β, BL-21 DE-3 for CDC37)
T1 sequence (P08238 whole entry): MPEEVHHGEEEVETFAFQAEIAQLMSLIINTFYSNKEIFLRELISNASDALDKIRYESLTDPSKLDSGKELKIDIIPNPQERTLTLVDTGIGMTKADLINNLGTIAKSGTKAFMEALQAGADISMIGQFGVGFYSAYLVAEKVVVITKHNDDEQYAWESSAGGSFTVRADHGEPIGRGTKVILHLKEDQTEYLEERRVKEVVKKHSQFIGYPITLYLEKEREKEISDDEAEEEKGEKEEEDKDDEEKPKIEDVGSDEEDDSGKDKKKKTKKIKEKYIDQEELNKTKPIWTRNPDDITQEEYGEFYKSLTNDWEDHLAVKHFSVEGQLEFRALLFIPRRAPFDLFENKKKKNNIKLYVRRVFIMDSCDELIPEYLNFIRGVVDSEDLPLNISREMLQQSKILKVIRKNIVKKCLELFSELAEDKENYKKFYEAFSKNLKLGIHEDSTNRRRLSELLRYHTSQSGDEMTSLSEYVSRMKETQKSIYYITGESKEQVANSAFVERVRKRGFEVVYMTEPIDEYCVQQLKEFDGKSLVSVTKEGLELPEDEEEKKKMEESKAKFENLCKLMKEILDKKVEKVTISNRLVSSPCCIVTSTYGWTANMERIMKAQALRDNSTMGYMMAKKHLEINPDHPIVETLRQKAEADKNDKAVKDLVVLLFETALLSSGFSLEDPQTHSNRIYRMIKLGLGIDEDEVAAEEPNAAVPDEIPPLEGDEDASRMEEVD
T1 sequence (Q16543 whole entry): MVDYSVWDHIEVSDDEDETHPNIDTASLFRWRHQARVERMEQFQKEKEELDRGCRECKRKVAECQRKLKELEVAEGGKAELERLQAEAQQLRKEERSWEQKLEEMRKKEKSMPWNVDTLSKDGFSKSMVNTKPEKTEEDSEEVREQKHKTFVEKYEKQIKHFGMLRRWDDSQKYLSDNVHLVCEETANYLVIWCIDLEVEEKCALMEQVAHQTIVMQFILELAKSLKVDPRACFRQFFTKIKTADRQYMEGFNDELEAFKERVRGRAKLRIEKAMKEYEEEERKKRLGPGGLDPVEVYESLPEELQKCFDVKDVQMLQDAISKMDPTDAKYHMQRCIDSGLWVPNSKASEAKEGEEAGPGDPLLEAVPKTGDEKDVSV
Procedure: Fig. 5 KBU2046 stabilizes CDC37/HSP90β heterocomplexes. a KBU2046 stabilizes HSP90β/CDC37 heterocomplexes in a DARTS assay. Equimolar amounts of HSP90β and CDC37 protein were pre-incubated with KBU2046, and resultant thermolysin reaction products were detected by silver stain following SDS-PAGE. […] Atoms within 5 angstroms of KBU2046 are colored by element (carbon, green; nitrogen, blue; oxygen, red). d Potential surface of the whole CDC37/HSP90β dimer (color code: green—HSP90β; gray—CDC37; cyan—Arg167 from CDC37 bisecting the larger pocket and creating a new cleft into which KBU2046 binds)
Fluorescent thermal shift, isothermal titration calorimetry, and biolayer interferometry assays[46] were all performed as described by us using MEK4EE (37-399, S257E, T261E) cloned into pMCSG7 and KRX Competent E. coli cells (Promega Inc.) and above denoted full-length HSP90B and CDC37 vectors and Rosetta BL-21 and BL-21 DE-3 competent E. coli cells, respectively. DARTS assays were conducted as described, using equimolar amounts of CDC37 and HSP90β, thermolysin digestion, and silver stain visualization (ProteoSilver Silver Stain Kit, Sigma-Aldrich).

`O=C1c2ccccc2OCC1c1ccc(F)cc1` (racemic) [KBU2046, (±)-3(4-fluorophenyl)chroman-4-one] showed a viability at 3 days, 50 µM [1] of 88.1%, an IC20 (PC3) greater than 50 µM and an IC50 (PC3) greater than 50 µM. For the same compound, the “toxicity to human bone marrow stem cells” value ([2]; 14 days) was “not toxic”, the “toxicity to stem cells” value ([2]; up to 40 micromolar for 14 days) was “no toxicity” and the concentration at 35 days ([3]; 150 mg/kg, mice whose metastasis were suppressed by 92%, read-out: plasma concentration) was 24 nM. For the same compound, the concentration at 35 days ([3]; athymic mice, KBU2046 in chow, doses that decreased metastasis, read-out: plasma concentrations) was 1.1 to 24 nM, the “inhibition of MKK4 kinase activity” value (MKK4) was “nor inhibit its kinase activity” and the “concentration at which effects were evident” value ([4]; CDC37 band increased, HSP90β degradation product decreased) was 10 nM. For the same compound, the “protection from thermolysin digestion” value ([4]; equimolar HSP90β and CDC37) was “protected both proteins from digestion”.
